From patent publication US12459951B2, “Compounds that interact with RAS superfamily proteins for treatment of cancers, inflammatory diseases, rasopathies, and fibrotic disease” (SHY Therapeutics, LLC, priority 2022, dated 2025)
Counter-ions that a name gives are not always drawn.

tested on: Akt phosphorylation; test: Akt Phosphorylation Assay (western blot), Panc-1; format: cell-based, human; conditions: at 10 μM, * = activation
Procedure: Protocol for Western Akt Cell-Based Phosphorylation Assay
This assay is referred to as the “Akt Phosphorylation Assay” throughout this application.
Human tumor-derived pancreatic cancer cell line Panc-1 (expressing KRas G12D mutant) was purchased from American Type Culture Collection and grown in complete DMEM-High Glucose supplemented with penicillin (100 U/mL), streptomycin (100 μg/mL), and 10% heat-inactivated FBS at 37° C. in a humidified incubator with 5% CO2.
Method 1: Cells were plated at 350000 cells/well density in a 12-well plate, allowed 3 hours to adhere to the plate, then starved in the appropriate medium in the presence of 0.5% FBS overnight. The small molecules to be tested were added to the cells in the final concentration of 10 μM in the presence of 0.3% DMSO for 6 hours incubation at 37° C. Next, cells were stimulated with 1.5 ng/ml EGF for 15 minutes then cells were lysed with lysis buffer containing 1% Triton X-100, EDTA, and Halt™ Protease & Phosphatase Inhibitor Cocktail (Thermo Scientific). Protein concentration was assessed by BCA protein assay (Thermo Scientific). Phosphorylation level of Akt was determined by western blot.
Method 2: Cells were plated at 350000 cells/well density in a 12-well plate in 10% FBS. The next day small molecules to be tested were added to the cells in the final concentration of 10 μM in the presence of 0.3% DMSO for 6 hours incubation at 37° C. For IC50 value determination, serial dilutions of compounds were added to cells under the same conditions. Next, cells were lysed with lysis buffer containing 1% Triton X-100, EDTA, and Halt™ Protease & Phosphatase Inhibitor Cocktail (Thermo Scientific). Protein concentration was assessed by BCA protein assay (Thermo Scientific). Phosphorylation level of Akt was determined by western blot.
Western blot protocol: Equal amounts of protein (15-50 μg) were separated by SDS-PAGE and transferred to nitrocellulose membranes (Invitrogen by Thermo Fisher Scientific). The membrane was stained with Ponceau S Stain (Boston BioProducts) to verify uniform protein loading. Membranes were blocked with 10% milk and phosphorylation levels of Akt were assessed by incubating overnight at 4° C. with anti-phospho-Akt (Ser473) antibody (Cell Signaling) followed by HRP-conjugated secondary antibody (Jackson Immunoresearch, West Grove, PA). Bands were incubated in Amersham ECL Prime Western Blotting Detection Reagent (GE Healthcare) and visualized using the ChemiDoc MP imaging system (Bio-Rad).

Compound	% inh of Akt phosphorylation in Panc-1
CO[C@H]1CC[C@@H](Nc2nc(-c3ccccn3)nn3cc(-c4ccn(C(C)C)n4)c(C)c23)C1 (racemic) [Compound 9, rac 6-(1-Isopropyl-1H-pyrazol-3-yl)-N-((1R,3S)-3-methoxycyclopentyl)-5-methyl-2-(pyridin-2-yl)pyrrolo[2,1-f][1,2,4]triazin-4-amine]	0 (0% inhibition)
CO[C@@H]1CC[C@@H](Nc2nc(-c3nccn3C)nn3cc(-c4ccn(C)n4)c(C)c23)C1 (racemic) [Compound 132, rac N-((1R,3R)-3-Methoxycyclopentyl)-5-methyl-2-(1-methyl-1H-imidazol-2-yl)-6-(1-methyl-1H-pyrazol-3-yl)pyrrolo[2,1-f][1,2,4]triazin-4-amine]	A (1-25% inhibition)
CO[C@H]1CC[C@@H](Nc2nc(-c3nccn3C)nn3cc(-c4ccn(C)n4)c(C)c23)C1 (racemic) [Compound 133, rac N-((1R,3S)-3-Methoxycyclopentyl)-5-methyl-2-(1-methyl-1H-imidazol-2-yl)-6-(1-methyl-1H-pyrazol-3-yl)pyrrolo[2,1-f][1,2,4]triazin-4-amine]	B (26-49% inhibition)
CO[C@@H]1CC[C@@H](Nc2nc(-c3nccn3C)nn3cc(-c4cccnc4)c(C)c23)C1 (racemic) [Compound 154, rac N-((1R,3R)-3-methoxy-cyclopentyl)-5-methyl-2-(1-methyl-1H-imidazol-2-yl)-6-(pyridin-3-yl)pyrrolo[2,1-f][1,2,4]triazin-4-amine]	B* (26-49% activation)
CO[C@H]1CC[C@@H](Nc2nc(-c3nccn3C)nn3cc(-c4cccnc4)c(C)c23)C1 (racemic) [Compound 155, rac N-((1R,3S)-3-methoxy-cyclopentyl)-5-methyl-2-(1-methyl-1H-imidazol-2-yl)-6-(pyridin-3-yl)pyrrolo[2,1-f][1,2,4]triazin-4-amine]	A (1-25% inhibition)
COc1cc(-c2cn3nc(-c4nccn4C)nc(N[C@@H]4CC[C@@H](OC)C4)c3c2C)ccn1 (racemic) [Compound 163, rac N-((1R,3R)-3-Methoxycyclopentyl)-6-(2-methoxypyridin-4-yl)-5-methyl-2-(1-methyl-1H-imidazol-2-yl)pyrrolo[2,1-f][1,2,4]triazin-4-amine]	A* (1-25% activation)
COc1cc(-c2cn3nc(-c4nccn4C)nc(N[C@@H]4CC[C@H](OC)C4)c3c2C)ccn1 (racemic) [Compound 164, rac N-((1R,3S)-3-Methoxycyclopentyl)-6-(2-methoxypyridin-4-yl)-5-methyl-2-(1-methyl-1H-imidazol-2-yl)pyrrolo[2,1-f][1,2,4]triazin-4-amine]	A* (1-25% activation)
Cc1c(-c2ccn(C(C)C)n2)cn2nc(-c3ccccn3)nc(O)c12 [Compound 8, 6-(1-Isopropyl-1H-pyrazol-3-yl)-5-methyl-2-(pyridin-2-yl)pyrrolo[2,1-f][1,2,4]triazin-4-ol]	0 (0% inhibition)
Cc1c(-c2ccn(C(C)C)n2)cn2nc(-c3nccn3C)nc(Nc3nccn3C)c12 [Compound 93, 6-(1-Isopropyl-1H-pyrazol-3-yl)-5-methyl-N,2-bis(1-methyl-1H-imidazol-2-yl)pyrrolo[2,1-f][1,2,4]triazin-4-amine]	D* (85-100% activation)
COc1cc(Nc2nc(-c3nccn3C)nn3cc(-c4ccccn4)c(C)c23)ncn1 [Compound 94, N-(6-Methoxypyrimidin-4-yl)-5-methyl-2-(1-methyl-1H-imidazol-2-yl)-6-(pyridin-2-yl)pyrrolo[2,1-f][1,2,4]triazin-4-amine]	D* (85-100% activation)
COc1ccnc(Nc2nc(-c3nccn3C)nn3cc(-c4ccn(C(F)F)n4)c(C)c23)n1 [Compound 95, 6-(1-(Difluoromethyl)-1H-pyrazol-3-yl)-N-(4-methoxypyrimidin-2-yl)-5-methyl-2-(1-methyl-1H-imidazol-2-yl)pyrrolo[2,1-f][1,2,4]triazin-4-amine]	D* (85-100% activation)
Cc1c(-c2ccn(C(C)C)n2)cn2nc(-c3nccn3C)nc(Nc3nccc(OCCN(C)C)n3)c12 [Compound 96, N-(4-(2-(Dimethylamino)ethoxy)pyrimidin-2-yl)-6-(1-isopropyl-1H-pyrazol-3-yl)-5-methyl-2-(1-methyl-1H-imidazol-2-yl)pyrrolo[2,1-f][1,2,4]triazin-4-amine]	D* (85-100% activation)
Cc1c(-c2ccn(C(C)C)n2)cn2nc(-c3nccn3C)nc(Nc3cc(OCCO)ncn3)c12 [Compound 97, 2-((6-((6-(1-Isopropyl-1H-pyrazol-3-yl)-5-methyl-2-(1-methyl-1H-imidazol-2-yl)pyrrolo[2,1-f][1,2,4]triazin-4-yl)amino)pyrimidin-4-yl)oxy) ethan-1-ol]	D* (85-100% activation)
COc1cc(Nc2nc(-c3nccn3C)nn3cc(-c4ccn(C(F)F)n4)c(C)c23)ncn1 [Compound 98, 6-(1-(Difluoromethyl)-1H-pyrazol-3-yl)-N-(6-methoxypyrimidin-4-yl)-5-methyl-2-(1-methyl-1H-imidazol-2-yl)pyrrolo[2,1-f][1,2,4]triazin-4-amine]	D* (85-100% activation)
Cc1c(-c2ccn(C)n2)cn2nc(-c3nccn3C)nc(Cl)c12 [Compound 99, 4-Chloro-5-methyl-2-(1-methyl-1H-imidazol-2-yl)-6-(1-methyl-1H-pyrazol-3-yl)pyrrolo[2,1-f][1,2,4]triazine]	A* (1-25% activation)
Cc1c(-c2ccn(C)n2)cn2nc(-c3nccn3C)nc(Nc3cc(OCCO)ncn3)c12 [Compound 101, 2-((6-((5-Methyl-2-(1-methyl-1H-imidazol-2-yl)-6-(1-methyl-1H-pyrazol-3-yl)pyrrolo[2,1-f][1,2,4]triazin-4-yl)amino)pyrimidin-4-yl)oxy) ethan-1-ol]	D* (85-100% activation)
CO[C@H]1C[C@H](Nc2nc(-c3nccn3C)nn3cc(-c4ccn(C)n4)c(C)c23)C1 [Compound 103, N-((1r,3r)-3-Methoxycyclobutyl)-5-methyl-2-(1-methyl-1H-imidazol-2-yl)-6-(1-methyl-1H-pyrazol-3-yl)pyrrolo[2,1-f][1,2,4]triazin-4-amine hydrochloride salt]	C* (46-84% activation)
Cc1c(-c2ccn(C)n2)cn2nc(-c3nccn3C)nc(Nc3nccc(OCCN(C)C)n3)c12 [Compound 105, N-(4-(2-(Dimethylamino)ethoxy)pyrimidin-2-yl)-5-methyl-2-(1-methyl-1H-imidazol-2-yl)-6-(1-methyl-1H-pyrazol-3-yl)pyrrolo[2,1-f][1,2,4]triazin-4-amine]	C* (46-84% activation)
Cc1c(-c2ccn(C)n2)cn2nc(-c3nccn3C)nc(Nc3nccn3C)c12 [Compound 106, 5-Methyl-N,2-bis(1-methyl-1H-imidazol-2-yl)-6-(1-methyl-1H-pyrazol-3-yl)pyrrolo[2,1-f][1,2,4]triazin-4-amine]	D* (85-100% activation)
COc1cncnc1Nc1nc(-c2nccn2C)nn2cc(-c3ccn(C)n3)c(C)c12 [Compound 107, N-(5-Methoxypyrimidin-4-yl)-5-methyl-2-(1-methyl-1H-imidazol-2-yl)-6-(1-methyl-1H-pyrazol-3-yl)pyrrolo[2,1-f][1,2,4]triazin-4-amine]	C* (46-84% activation)
CCc1nc(Nc2nc(-c3nccn3C)nn3cc(-c4ccn(C)n4)c(C)c23)nn1C [Compound 108, N-(5-Ethyl-1-methyl-1H-1,2,4-triazol-3-yl)-5-methyl-2-(1-methyl-1H-imidazol-2-yl)-6-(1-methyl-1H-pyrazol-3-yl)pyrrolo[2,1-f][1,2,4]triazin-4-amine]	D* (85-100% activation)
Cc1c(-c2ccn(C)n2)cn2nc(-c3nccn3C)nc(Nc3cn(C(C)C)nn3)c12 [Compound 109, N-(1-Isopropyl-1H-1,2,3-triazol-4-yl)-5-methyl-2-(1-methyl-1H-imidazol-2-yl)-6-(1-methyl-1H-pyrazol-3-yl)pyrrolo[2,1-f][1,2,4]triazin-4-amine]	D* (85-100% activation)
COc1cnc(Nc2nc(-c3nccn3C)nn3cc(-c4ccn(C)n4)c(C)c23)cn1 [Compound 110, N-(5-Methoxypyrazin-2-yl)-5-methyl-2-(1-methyl-1H-imidazol-2-yl)-6-(1-methyl-1H-pyrazol-3-yl)pyrrolo[2,1-f][1,2,4]triazin-4-amine]	C* (46-84% activation)
